For one experiment, the target named is T1, BRD4 BD1 (Homo sapiens, UniProt O60885).
T1 construct: made in house
As to the kind of experiment: AlphaScreen binding assay, BRD4 Bromodomain 1. A digest of the protocol: (§1)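 Compound dilution series were mixed with His-tagged BRD4 bromodomain and biotinylated tetra-acetylated H4 (1-21) peptide at pH 7.3 (BD1 and peptide at 50 nM, BD2 and peptide at 100 nM). Donor and acceptor beads were then added, and plates were equilibrated at least 1 h before reading. IC50 values were fitted with a four-parameter logistic model.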
In general terms: In Alpha technology, singlet oxygen from a donor bead excites a nearby acceptor bead.

For the next experiment, the target named is T2, BRD4 BD2 (Homo sapiens, UniProt O60885).
T2 construct: made in house
The experiment in a line: AlphaScreen binding assay, BRD4 Bromodomain 2. A digest of the protocol:
as §1

The next experiment relates to MV4-11 cells. As to the kind of experiment: Oncology cell growth assay (3-day proliferation, CellTiter-Glo). The class given is cell-based. The settings on record: Homo sapiens, MV4-11, 72 h, AML cell line MV4-11, 72 hours, compounds grouped by IC50 range, read-out: MV4-11 IC50 (inhibition of proliferation, gIC50). A digest of the protocol: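 Compounds were serially diluted 3-fold in DMSO, giving final well concentrations from 10 down to 0.0045 μM. MV4-11 cells were then seeded at 3000 cells/well in RPMI 1640 with 10% FBS and incubated 72 hours. CellTiter-Glo signal was measured and gIC50 obtained by four-parameter logistic regression.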

34 compounds from patent publication US10703764B2, “Benzopiperazine compositions as BET bromodomain inhibitors” (FORMA Therapeutics, Inc., priority 2013, dated 2020) can be followed below.

For the compound `CC(=O)N1c2ccc(-c3cnn(C4CCOCC4)c3)cc2N(C(=O)OC2CCC(F)(F)CC2)C[C@@H]1C` [Example I-2, (S)-4,4-difluorocyclohexyl 4-acetyl-3-methyl-7-(1-(tetrahydro-2H-pyran-4-yl)-1H-pyrazol-4-yl)-3,4-dihydroquinoxaline-1(2H)-carboxylate], the IC50 lay in the range of 100 to 1000 nM on BRD4 BD1, 50 to 500 nM on BRD4 BD2 and 100 to 500 nM in the experiment on MV4-11 cells.

Turning to `CC(=O)N1c2ccc(-c3cnn(CCO)c3)cc2N(C(=O)N(C)C(C)C)C[C@@H]1C` [Example I-1211], the IC50 on BRD4 BD1 was greater than 10000 nM; on BRD4 BD2 it was 50 to 500 nM; in the experiment with MV4-11 cells, greater than 500 nM.

Consider `CC(=O)N1c2cc(Br)c(-c3ccc(S(C)(=O)=O)cc3)cc2N(C(=O)OC(C)C)C[C@@H]1C` [Example I-217, Isopropyl (S)-4-acetyl-6-bromo-3-methyl-7-(4-(methylsulfonyl)phenyl)-3,4-dihydroquinoxaline-1(2H)-carboxylate], for which the results for the IC50 on BRD4 BD1, at BRD4 BD2 and in the experiment on MV4-11 cells were 1000 to 10000 nM, greater than 500 nM and greater than 500 nM, respectively.

As to `CC(=O)N1c2ccc(-c3cnn(C4CC4)c3)cc2N(c2nn(C)c3cc(F)ccc23)C[C@@H]1C` [Example I-54, (S)-1-(6-(1-cyclopropyl-1H-pyrazol-4-yl)-4-(6-fluoro-1-methyl-1H-indazol-3-yl)-2-methyl-3,4-dihydroquinoxalin-1(2H)-yl)ethanone], the IC50 is 100 to 1000 nM on BRD4 BD1, 50 to 500 nM at BRD4 BD2 and less than 100 nM in the experiment with MV4-11 cells.

With `COC(=O)c1ccc(OC(=O)N2C[C@H](C)N(C(C)=O)c3ccc(-c4cnn(C5CC5)c4)cc32)cc1` [Example I-262], the IC50 was 100 to 1000 nM at BRD4 BD1, less than 50 nM at BRD4 BD2 and 100 to 500 nM with MV4-11 cells.

For the compound `CC(=O)N1c2ccc(-c3cnn(CCF)c3)cc2N(C(=O)OC(C)C)C[C@@H]1C` [Example I-666], the IC50 lay within 100 to 1000 nM on BRD4 BD1, 50 to 500 nM at BRD4 BD2 and 100 to 500 nM in the experiment on MV4-11 cells.

On to `CC(=O)N1c2ccc(-c3cccc(N4CCCCC4)c3)cc2N(C(=O)c2ccco2)C[C@@H]1C` [Example I-867], for which the IC50 is 1000 to 10000 nM at BRD4 BD1, 50 to 500 nM at BRD4 BD2 and greater than 500 nM in the experiment on MV4-11 cells.

On to `CC(=O)N1c2ccc(-c3cnn(C(F)F)c3)cc2N(C(=O)OC(C)C)C[C@@H]1C` [Example I-336], for which the IC50 on BRD4 BD1 was 100 to 1000 nM; at BRD4 BD2 it was 50 to 500 nM; with MV4-11 cells it was greater than 500 nM.

For the compound `CCS(=O)(=O)c1ccc(-c2ccc3c(c2)N(C(=O)OC2CCOCC2)C[C@H](C)N3C(C)=O)cc1` [Example I-1214], the IC50 on BRD4 BD1 was 100 to 1000 nM; at BRD4 BD2, 50 to 500 nM; in the experiment with MV4-11 cells it was 100 to 500 nM.

Consider `CC(=O)N1c2ccc(-c3ccc4c(c3)OCCO4)cc2N(C(=O)c2ccco2)C[C@@H]1C` [Example I-825], for which the IC50 is 100 to 1000 nM on BRD4 BD1, less than 50 nM on BRD4 BD2 and greater than 500 nM with MV4-11 cells.

In the case of `CC(=O)N1c2ccc(-c3ccc4c(c3)CS(=O)(=O)N4)cc2N(C(=O)OC(C)C)C[C@@H]1C` [Example I-1179], the IC50 on BRD4 BD1 lay in the range of 100 to 1000 nM; at BRD4 BD2, 50 to 500 nM; with MV4-11 cells it was 100 to 500 nM.

Take `CC(=O)N1c2ccc(-c3ccc(C(=O)N4CC[C@@H](N(C)C)C4)cc3)cc2N(C(=O)OC(C)C)C[C@@H]1C` [Example I-542]: the IC50 was less than 100 nM on BRD4 BD1, less than 50 nM at BRD4 BD2 and less than 100 nM with MV4-11 cells.

Turning to `CC(=O)N1c2ccc(-c3cccc(S(C)(=O)=O)c3)cc2N(C(=O)OC2CCOCC2)C[C@@H]1C` [Example I-1226], the IC50 is 100 to 1000 nM on BRD4 BD1, 50 to 500 nM on BRD4 BD2 and greater than 500 nM in the experiment with MV4-11 cells.

As for `COC(=O)N1CCN(C(=O)c2ccc(-c3ccc4c(c3)N(C(=O)OC(C)C)C[C@H](C)N4C(C)=O)cc2)CC1` [Example I-546], the results for the IC50 at BRD4 BD1, on BRD4 BD2 and in the experiment on MV4-11 cells were 100 to 1000 nM, 50 to 500 nM and 100 to 500 nM, respectively.

With `CC(=O)N1c2ccc(-c3cnn(CC(C)(C)O)c3)cc2N(C(=O)OC2CCC(F)(F)CC2)C[C@@H]1C` [Example I-35, (S)-4,4-difluorocyclohexyl 4-acetyl-7-(1-(2-hydroxy-2-methylpropyl)-1H-pyrazol-4-yl)-3-methyl-3,4-dihydroquinoxaline-1(2H)-carboxylate], the IC50 is 100 to 1000 nM at BRD4 BD1, 50 to 500 nM on BRD4 BD2 and 100 to 500 nM with MV4-11 cells.

On to `CC(=O)N1c2ccc(-c3cnn(CC(N)=O)c3)cc2N(C(=O)OC(C)C)C[C@@H]1C` [Example I-304], for which the IC50 lay within 100 to 1000 nM at BRD4 BD1, 50 to 500 nM at BRD4 BD2 and 100 to 500 nM with MV4-11 cells.

As for `CC(=O)N1c2ccc(-c3cnn(Cc4cc(C)on4)c3)cc2N(C(=O)OC(C)C)C[C@@H]1C` [Example I-665], the IC50 was 100 to 1000 nM on BRD4 BD1, 50 to 500 nM at BRD4 BD2 and 100 to 500 nM in the experiment on MV4-11 cells.

Consider `CC(=O)N1c2ccc(-c3cnn(C4CC4)c3)cc2N(C(=O)Oc2ccc(C)cc2Cl)C[C@@H]1C` [Example I-504], for which the results for the IC50 on BRD4 BD1, on BRD4 BD2 and in the experiment with MV4-11 cells were 100 to 1000 nM, 50 to 500 nM and 100 to 500 nM, respectively.

Consider `CC(=O)N1c2ccc(-c3ccc(S(=O)(=O)NC(C)(C)C)cc3)cc2N(C(=O)OC2CCCCC2)C[C@@H]1C` [Example I-1265], for which the IC50 lay in the range of 100 to 1000 nM on BRD4 BD1, 50 to 500 nM at BRD4 BD2 and 100 to 500 nM in the experiment with MV4-11 cells.

`CC(=O)N1c2ccc(-c3cnn(C4CCOCC4)c3)cc2N(C(=O)OC2CC(F)(F)C2)C[C@@H]1C` [Example I-4, (S)-3,3-difluorocyclobutyl 4-acetyl-3-methyl-7-(1-(tetrahydro-2H-pyran-4-yl)-1H-pyrazol-4-yl)-3,4-dihydroquinoxaline-1(2H)-carboxylate]: the IC50 at BRD4 BD1 fell in the range of 100 to 1000 nM; at BRD4 BD2 it was 50 to 500 nM; with MV4-11 cells, 100 to 500 nM.

As to `CC(=O)N1c2ccc(-c3cnn(C4CCCS(=O)(=O)C4)c3)cc2N(C(=O)OC2CCCC2)C[C@@H]1C` (stereo partly drawn) [Example I-1148], the IC50 is 100 to 1000 nM at BRD4 BD1, less than 50 nM on BRD4 BD2 and 100 to 500 nM with MV4-11 cells.

For the compound `CCC(=O)N1c2ccc(-c3ccc(S(C)(=O)=O)cc3)cc2N(C(=O)c2ccco2)C[C@@H]1C` [Example I-365], the IC50 on BRD4 BD1 is 1000 to 10000 nM; on BRD4 BD2, less than 50 nM; in the experiment on MV4-11 cells it was greater than 500 nM.

As to `CC(=O)N1c2ccc(-c3cnn(Cc4ccncc4)c3)cc2N(C(=O)OC(C)C)C[C@@H]1C` [Example I-117, (S)-isopropyl 4-acetyl-3-methyl-7-(1-(pyridin-4-ylmethyl)-1H-pyrazol-4-yl)-3,4-dihydroquinoxaline-1(2H)-carboxylate], the IC50 on BRD4 BD1 is 100 to 1000 nM; on BRD4 BD2 it was 50 to 500 nM; with MV4-11 cells, 100 to 500 nM.

Regarding `CC(=O)N1c2ccc(-c3ccc(S(=O)(=O)CC(C)C)cc3)cc2N(C(=O)OC2CCOCC2)C[C@@H]1C` [Example I-1240], the IC50 on BRD4 BD1 fell in the range of 100 to 1000 nM; on BRD4 BD2, 50 to 500 nM; in the experiment with MV4-11 cells, 100 to 500 nM.

Consider `CC(=O)N1c2ccc(-c3cnn(CC(C)(C)O)c3)cc2N(C(=O)OC2CC(F)(F)C2)C[C@@H]1C` [Example I-28, (S)-3,3-difluorocyclobutyl 4-acetyl-7-(1-(2-hydroxy-2-methylpropyl)-1H-pyrazol-4-yl)-3-methyl-3,4-dihydroquinoxaline-1(2H)-carboxylate], for which the IC50 on BRD4 BD1 is 100 to 1000 nM; at BRD4 BD2, 50 to 500 nM; with MV4-11 cells, greater than 500 nM.

With `CC(C)OC(=O)N1C[C@H](C)N(C(=O)C2CC2)c2ccc(-c3cnn(CC(C)(C)O)c3)cc21` [Example I-328], the IC50 on BRD4 BD1 was in the range of 100 to 1000 nM; at BRD4 BD2, 50 to 500 nM; with MV4-11 cells it was 100 to 500 nM.

As for `CC(=O)N1c2ccc(-c3ccc(S(N)(=O)=O)cc3)cc2N(C(=O)OC2CCOCC2)C[C@@H]1C` [Example I-1234], the IC50 on BRD4 BD1 is 100 to 1000 nM; on BRD4 BD2 it was 50 to 500 nM; in the experiment on MV4-11 cells, 100 to 500 nM.

`CC(=O)N1c2ccc(-c3ccc(NS(C)(=O)=O)c(F)c3)cc2N(C(=O)C2CC2)C[C@@H]1C` [Example I-1180]: the figures for the IC50 on BRD4 BD1, at BRD4 BD2 and in the experiment with MV4-11 cells were 100 to 1000 nM, 50 to 500 nM and greater than 500 nM, respectively.

Regarding `CC(=O)N1c2ccc(-c3cnn(CC4CCOCC4)c3)cc2N(C(=O)OC(C)C)C[C@@H]1C` [Example I-608], the IC50 is 100 to 1000 nM at BRD4 BD1, 50 to 500 nM on BRD4 BD2 and 100 to 500 nM with MV4-11 cells.

`CCN(CC)S(=O)(=O)c1cc(-c2ccc3c(c2)N(C(=O)OC2CCOCC2)C[C@H](C)N3C(C)=O)ccc1OC` [Example I-1258]: the IC50 fell in the range of 100 to 1000 nM on BRD4 BD1, 50 to 500 nM at BRD4 BD2 and 100 to 500 nM with MV4-11 cells.

As for `CC(=O)N1c2ccc(-c3cnn(CC4CCOCC4)c3)cc2N(C(=O)C2CC2)C[C@@H]1C` [Example I-657], the IC50 fell in the range of 100 to 1000 nM at BRD4 BD1, 50 to 500 nM on BRD4 BD2 and 100 to 500 nM in the experiment with MV4-11 cells.

In the case of `CC(=O)N1c2ccc(-c3cnn(CC4CCS(=O)(=O)CC4)c3)cc2N(C(=O)OC(C)C)C[C@@H]1C` [Example I-595], the IC50 was in the range of 100 to 1000 nM on BRD4 BD1, 50 to 500 nM at BRD4 BD2 and 100 to 500 nM in the experiment with MV4-11 cells.

Take `CC(=O)N1c2cc(N)c(-c3ccc(S(C)(=O)=O)cc3)cc2N(C(=O)OC(C)C)C[C@@H]1C` [Example I-216, Isopropyl (S)-4-acetyl-6-amino-3-methyl-7-(4-(methylsulfonyl)phenyl)-3,4-dihydroquinoxaline-1 (2H)-carboxylate]: the IC50 on BRD4 BD1 was 1000 to 10000 nM; on BRD4 BD2, greater than 500 nM; in the experiment on MV4-11 cells, greater than 500 nM.

Turning to `CC(=O)N1c2ccc(-c3ccc(S(N)(=O)=O)cc3)cc2N(C(=O)C2CCC2)C[C@@H]1C` [Example I-1067], the IC50 at BRD4 BD1 was greater than 10000 nM; on BRD4 BD2, 50 to 500 nM; with MV4-11 cells it was greater than 500 nM.
